pIC50: −log10 of the molar value.

The target of assay [1] is T1, Ubiquitin carboxyl-terminal hydrolase isozyme L1 (Homo sapiens, UniProt P09936).
T1 sequence (P09936 whole entry): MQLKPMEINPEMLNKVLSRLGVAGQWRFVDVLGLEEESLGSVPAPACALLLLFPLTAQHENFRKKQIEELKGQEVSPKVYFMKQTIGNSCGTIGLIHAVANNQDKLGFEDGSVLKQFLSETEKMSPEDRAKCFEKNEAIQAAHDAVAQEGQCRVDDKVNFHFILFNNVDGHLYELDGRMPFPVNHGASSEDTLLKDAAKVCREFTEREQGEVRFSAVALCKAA
In words: Inhibition of UCHL1 (unknown origin) using Ub-Rho as substrate preincubated for 30 mins followed by substrate addition.

Assay [2] deals with T2, Ubiquitin carboxyl-terminal hydrolase isozyme L3 (Homo sapiens) (UniProt P15374).
T2 sequence (whole entry): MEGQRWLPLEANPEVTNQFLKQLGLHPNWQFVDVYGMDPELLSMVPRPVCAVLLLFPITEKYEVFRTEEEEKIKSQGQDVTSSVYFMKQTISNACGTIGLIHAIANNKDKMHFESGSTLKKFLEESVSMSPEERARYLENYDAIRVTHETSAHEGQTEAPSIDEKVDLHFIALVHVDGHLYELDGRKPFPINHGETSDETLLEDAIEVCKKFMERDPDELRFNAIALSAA
In words: Inhibition of UCHL3 (unknown origin) using Ub-AMC as substrate at 0.1 uM preincubated for 60 mins followed by substrate addition by fluorescence assay relative to control.

Assay [3] addresses T3, Ubiquitin carboxyl-terminal hydrolase isozyme L3 (Homo sapiens, UniProt P15374).
T3 sequence (P15374 whole entry): T2 sequence (whole entry)
In words: Inhibition of UCHL3 (unknown origin) assessed as reduction in RAD51 deubiquitination incubated for 4 hrs.

Assay [4] has as its target T3, Ubiquitin carboxyl-terminal hydrolase isozyme L3. In words: Inhibition of UCHL3 (unknown origin) using Ub-AMC as substrate preincubated for 30 mins followed by substrate addition by fluorescence assay.
In assay [5] the target is T1, Ubiquitin carboxyl-terminal hydrolase isozyme L1. In words: Inhibition of UCHL1 (unknown origin) using Ub-Rho-morpholine as substrate preincubated for 30 mins followed by substrate addition by fluorescence based assay.
For assay [6], the target named is T3, Ubiquitin carboxyl-terminal hydrolase isozyme L3. In words: Inhibition of recombinant human UCHL3 expressed in baculovirus infected Sf9 cells using ubiquitin-AMC as substrate preincubated for 30 mins followed by substrate addition by fluorescence spectrophotometric assay.
Assay [7] has the same target. In words: Inhibition of UCHL3 (unknown origin) using ubiquitin-AMC as substrate by fluorescence assay.
For assay [8] the target is unchanged. In words: Inhibition of UCHL3 (unknown origin) incubated for 20 mins by fluorescence assay.
For assay [9] the target is unchanged. In words: Inhibition of UCHL3 (unknown origin).

Consider `N#CN1CCCC1C(=O)n1ccc2c(-c3cn[nH]c3C(F)(F)F)cccc21` (stereo not given), for which, in assay [1], the pIC50 was 6.17.

Consider `C#CCCn1cc(-c2cccc3c2ccn3C(=O)C2CCCN2C#N)c(C(F)(F)F)n1` (stereo not given), for which, in assay [1], the pIC50 is 5.19.

With `O=C1C(Cc2ccc([N+](=O)[O-])cc2)CNCC1Cc1ccc([N+](=O)[O-])cc1` (stereo not given), the inhibition in assay [2] turned out to be 60%.

As for `CCCCCCCCCCCCCCCCCCOP(=O)([O-])OC1CC[N+](C)(C)CC1` [PERIFOSINE], the pIC50 in assay [3] was 7.30.

For the molecule `CCCCC[C@H](O)/C=C/[C@H]1C(=O)C=C[C@@H]1C/C=C\CCCC(=O)O`, the pIC50 in assay [4] was 5.00.

The molecule `N#CN1CCC(C(=O)Nc2ncc(N3CCOCC3)s2)C1` (stereo not given) gave a pIC50 in [5] of 6.64.

On to `CCCCc1ccc(-c2nnc(C)n2-c2ccc(C(C)C)cc2)cc1`, for which the pIC50 in assay [6] was 4.33.

In turn, `O=C1c2ccccc2C(=O)c2oc(-c3ccc(F)cc3)nc21` showed a negative-log IC50 (pIC50) in assay [7] of 5.67.

The molecule `COC(=O)c1cc(-c2ccc(OC)c(OC)c2O)c(N)c(-c2ccc3c(n2)C(=O)C(N)=C(OC)C3=O)n1` showed a pIC50 in [8] of 5.30.

In the case of `CC(=O)O/N=C1/C(=O)N(Cc2cc(Cl)ccc2Cl)c2ccc(Cl)cc21`, the pIC50 in assay [9] was 4.60.

Source of the values: ChEMBL document CHEMBL5126510, “UCH-L3 structure and function: Insights about a promising drug target” (Eur J Med Chem, 2022).
